Results: patent US4143166A, “7[(2-Hydroxyamino-2-disubstituted phenyl-acetamido)-]3-heterocyclicthio-3-cephem-4-carboxylic acids” (Fujisawa Pharmaceutical Co., Ltd., priority 1975, dated 1979)
≈ marks a conversion by molar mass, not a printed value. Where two headings read alike, the source gives them in different places.

Assays:
Assay type in all cases: cell-based
Sh. flexneri2a = test: In vitro antibacterial activity, two-fold agar-plate dilution method (MIC), Sh. flexneri 2a; details: Shigella flexneri, HI-agar, 37° C., 20 hours, 10^8 viable cells per ml, read-out: minimal inhibitory concentration (MIC)
Experimental: (§1) In vitro antibacterial activity was determined by the two-fold agar-plate dilution method as described below.
(§2) One loopful of an overnight culture of each test strain in Trypticase-soy broth (10^8 viable cells per ml) was streaked on heart infusion agar (HI-agar) containing graded concentrations of antibiotics, and the minimal inhibitory concentration (MIC) was expressed in terms of μg/ml after incubation at 37° C. for 20 hours.

Sal. Enteritidis = test: In vitro antibacterial activity, two-fold agar-plate dilution method (MIC), Sal. Enteritidis; details: Salmonella enterica, read-out: minimal inhibitory concentration (MIC)
Experimental: as §1, §2

Ps. aeruginosa721 = test: In vitro antibacterial activity, two-fold agar-plate dilution method (MIC), Ps. aeruginosa 721; details: Pseudomonas aeruginosa, read-out: minimal inhibitory concentration (MIC)
Experimental: as §1, §2

E coli 341 = test: In vitro antibacterial activity, two-fold agar-plate dilution method (MIC), E coli 341; details: read-out: minimal inhibitory concentration (MIC)
Experimental: as §1, §2

Kl. pneumoniae 417 = test: In vitro antibacterial activity, two-fold agar-plate dilution method (MIC), Kl. pneumoniae 417; details: Klebsiella pneumoniae, HI-agar, 37° C., 20 hours, 10^8 viable cells per ml, read-out: minimal inhibitory concentration (MIC)
Experimental: as §1, §2

Pr. mirabilis 525 = test: In vitro antibacterial activity, two-fold agar-plate dilution method (MIC), Pr. mirabilis 525; details: read-out: minimal inhibitory concentration (MIC)
Experimental: as §1, §2

[1] = Ps. aeruginosa721, HI-agar, 37° C., 20 hours, 10^8 viable cells per ml
[2] = E coli 341, HI-agar, 37° C., 20 hours, 10^8 viable cells per ml
[3] = Proteus mirabilis, Pr. mirabilis 525, HI-agar, 37° C., 20 hours, 10^8 viable cells per ml
[4] = Sal. Enteritidis, HI-agar, 37° C., 20 hours, 10^8 viable cells per ml

| SMILES | MIC (Sh. flexneri2a) [µg/mL] | MIC (Sal. Enteritidis; ENTERITIDIS, 20 h) [µg/mL] | MIC (Ps. aeruginosa721; [1]) [µg/mL] | MIC (E coli 341; [2]) [µg/mL] | MIC (Kl. pneumoniae 417) [µg/mL] | MIC (Pr. mirabilis 525; [3]) [µg/mL] | MIC (Sal. Enteritidis; [4]) [µg/mL] | MIC (Ps. aeruginosa721; 20 h) [µg/mL] | MIC (Pr. mirabilis 525; Proteus mirabilis, 525, 20 h) [µg/mL] | MIC (E coli 341; 20 h) [µg/mL] |
| --- | --- | --- | --- | --- | --- | --- | --- | --- | --- | --- |
| Cn1nnnc1SCC1=C(C(=O)O)N2C(=O)C(NC(=O)/C(=N\O)c3ccc(O)cc3)C2SC1 (stereo not drawn) [Test Compound (1), Sodium 7-[2-hydroxyimino-2-(4-hydroxyphenyl)acetamido]-3-(1-methyl-1H-tetrazol-5-yl)thiomethyl-3-cephem-4-carboxylate (syn isomer)] | 0.78 | 3.13 | 25 | 1.56 | 3.13 | 1.56 | – | – | – | – |
| Cn1nnnc1SCC1=C(C(=O)O)N2C(=O)C(NC(=O)/C(=N\O)c3cccc(O)c3)C2SC1 (stereo not drawn) [Test Compound (2), Sodium 7-(2-hydroxyimino-2-(3-hydroxyphenyl)acetamido]-3-(1-methyl-1H-tetrazol-5-yl)thiomethyl-3-cephem-4-carboxylate (syn isomer)] | 0.78 | – | 100 | 0.78 | 0.78 | 1.56 | 1.56 | – | – | – |
| CC(=O)OCC1=C(C(=O)O)N2C(=O)C(NC(=O)/C(=N\O)c3ccc(O)c(Cl)c3)C2SC1 (stereo not drawn) [Test Compound (3), Sodium 7-[2-hydroxyimino-2-(3-chloro-4-hydroxyphenyl)acetamido]cephalosporanate (syn isomer)] | 3.13 | – | – | 6.25 | 3.13 | 0.39 | 0.78 | 3.13 | – | – |
| O=C(O)C1=C(CSc2nncs2)CSC2C(NC(=O)/C(=N\O)c3cccc(O)c3)C(=O)N12 (stereo not drawn) [Test Compound (4), 7-[2-Hydroxyimino-2-[3-hydroxyphenyl)acetamido]-3-(1,3,4-thiadiazol-2-yl)thiomethyl-3-cephem-4-carboxylic acid (syn isomer)] | 0.39 (≈ 0.79 µM) | – | 12.5 (≈ 25.3 µM) | 0.78 (≈ 1.58 µM) | 3.13 (≈ 6.34 µM) | 1.56 (≈ 3.16 µM) | 0.39 (≈ 0.79 µM) | – | – | – |
| Cc1nnc(SCC2=C(C(=O)O)N3C(=O)C(NC(=O)/C(=N\O)c4cccc(O)c4)C3SC2)s1 (stereo not drawn) [Test Compound (5), 7-[2-Hydroxyimino-2-(3-hydroxyphenyl)acetamido]-3-(5-methyl-1,3,4-thiadiazol-2-yl)thiomethyl-3-cephem-4-carboxylic acid (syn isomer)] | 0.39 (≈ 0.768 µM) | – | 6.25 (≈ 12.3 µM) | 0.78 (≈ 1.54 µM) | 0.78 (≈ 1.54 µM) | 3.13 (≈ 6.17 µM) | 0.2 (≈ 0.394 µM) | – | – | – |
| Cn1nnnc1SCC1=C(C(=O)O)N2C(=O)C(NC(=O)/C(=N\OC(=O)c3ccccc3)c3cccc(O)c3)C2SC1 (stereo not drawn) [Test Compound (6), 7-[2-Benzoyloxyimino-2-(3-hydroxyphenyl)acetamido]-3-(1-methyl-1H-tetrazol-5-yl)thiomethyl-3-cephem-4-carboxylic acid (syn isomer)] | 0.78 (≈ 1.31 µM) | – | 12.5 (≈ 21 µM) | 1.56 (≈ 2.62 µM) | 0.39 (≈ 0.655 µM) | 0.78 (≈ 1.31 µM) | 0.39 (≈ 0.655 µM) | – | – | – |
| CCOC(=O)O/N=C(\C(=O)NC1C(=O)N2C(C(=O)O)=C(CSc3nnnn3C)CSC12)c1cccc(O)c1 (stereo not drawn) [Test Compound (7), 7-[2-Ethoxycarbonyloxyimino-2-(3-hydroxyphenyl)acetamido]-3-(1-methyl-1H-tetrazol-5-yl)thiomethyl-3-cephem-4-carboxylic acid (syn isomer)] | 1.56 (≈ 2.77 µM) | – | 25 (≈ 44.4 µM) | 3.13 (≈ 5.55 µM) | 0.39 (≈ 0.692 µM) | 0.39 (≈ 0.692 µM) | 0.2 (≈ 0.355 µM) | – | – | – |
| CC(=O)OCC1=C(C(=O)O)N2C(=O)C(NC(=O)/C(=N\O)c3cccc(O)c3)C2SC1 (stereo not drawn) [Test Compound (8), 7-[2-Hydroxyimino-2-(3-hydroxphenyl)acetamido]cephalosporanic acid (syn isomer)] | 0.78 (≈ 1.79 µM) | 1.56 (≈ 3.58 µM) | 25 (≈ 57.4 µM) | 0.78 (≈ 1.79 µM) | 1.56 (≈ 3.58 µM) | – | – | – | 1.56 (≈ 3.58 µM) | – |
| NC(=O)OCC1=C(C(=O)O)N2C(=O)C(NC(=O)/C(=N\O)c3cccc(O)c3)C2SC1 (stereo not drawn) [Test Compound (9), Sodium 7-[2-hydroxyimino-2-(3-hydroxyphenyl)acetamido]-3-carbamoyloxymethyl-3-cephem-4-carboxylate (syn isomer)] | 0.78 | – | 6.25 | – | 0.2 | 0.78 | 0.78 | – | – | – |
| Cn1nnnc1SCC1=C(C(=O)O)N2C(=O)C(NC(=O)/C(=N\O)c3ccc(O)c([N+](=O)[O-])c3)C2SC1 (stereo not drawn) [Test Compound (10), 7-[2-Hydroxyimino-2-(3-nitro-4-hydroxyphenyl)acetamido]-3-(1-methyl-1H-tetrazol-5-yl)thiomethyl-3-cephem-4-carboxylic acid (syn isomer)] | 1.56 (≈ 2.91 µM) | – | – | 3.13 (≈ 5.83 µM) | 0.39 (≈ 0.727 µM) | 0.2 (≈ 0.373 µM) | 0.2 (≈ 0.373 µM) | – | – | – |
| Cc1nnc(SCC2=C(C(=O)O)N3C(=O)C(NC(=O)/C(=N\O)c4ccccc4)C3SC2)s1 (stereo not drawn) [Test Compound (A), 7-(2-Hydroxyimino-2-phenylacetamido)-3-(5-methyl-1,3,4-thiadiazol-2-yl)thiomethyl-3-cephem-4-carboxylic acid (syn isomer), reference compound] | 6.25 (≈ 12.7 µM) | 6.25 (≈ 12.7 µM) | 50 (≈ 102 µM) | – | 12.5 (≈ 25.4 µM) | 25 (≈ 50.9 µM) | – | – | – | 12.5 (≈ 25.4 µM) |
